Measurements from patent publication US9314026B2, “Heterocyclylpyri(mi)dinylpyrazole” (Bayer Intellectual Property GmbH, priority 2011, dated 2016).

Experiments:
Botrytis cinerea = assay: Botrytis test (beans)/preventive; assay type: in vivo; conditions: 48 h, 100 ppm of active ingredient, preventive, size of lesions evaluated 2 days after inoculation, read-out: efficacy
Method: (§1) Botrytis Test (Beans)/Preventive Solvent: 24.5 parts by weight of acetone • 24.5 parts by weight of dimethylacetamide Emulsifier: 1 part by weight of alkylaryl polyglycol ether To produce a suitable preparation of active compound, 1 part by weight of active compound is mixed with the stated amounts of solvent and emulsifier, and the concentrate is diluted with water to the desired concentration. To test for preventive activity, young plants are sprayed with the preparation of active compound. After the spray coating has dried on, 2 small pieces of agar covered with growth of Botrytis cinerea are placed on each leaf.

Phytophthora infestans = assay: whole plant or invertebrate; assay type: in vivo; conditions: 72 h, read-out: efficacy
Leptosphaeria nodorum = assay: Leptosphaeria test (wheat)/preventive; assay type: in vivo; conditions: Parastagonospora nodorum, 500 ppm of active ingredient, preventive, evaluated 7-9 days after inoculation, read-out: efficacy
Method: (§2) Leptosphaeria Test (Wheat)/Preventive Solvent: 49 parts by weight of N,N-Dimethylformamide Emulsifier: 1 part by weight of Alkylarylpolyglycolether To produce a suitable preparation of active compound, 1 part by weight of active compound is mixed with the stated amounts of solvent and emulsifier, and the concentrate is diluted with water to the desired concentration. To test for preventive activity, young plants are sprayed with a preparation of active compound at the stated rate of application. One day after this treatment, the plants are inoculated with an aqueous spore suspension of Leptosphaeria nodorum.

[1] = determination of the log P values by HPLC on a reverse phase column (C18), EEC-Directive 79/831 Annex V.A8; assay type: physicochemical
Method: Method A Note on the determination of the log P values and mass detection: The stated log P values were determined in accordance with EEC-Directive 79/831 Annex V.A8 by HPLC (High Performance Liquid Chromatography) on a reverse phase column (C18). […] The mass detection was effected with an […] system. Method B Note on the determination of the log P values and mass detection: The stated log P values were determined in accordance with EEC-Directive 79/831 Annex V.A8 by HPLC (High Performance Liquid Chromatography) on a reverse phase column (C18). […] The mass detection was effected with the Micronass ZQ2000 mass detector from Waters. Method C Note on the determination of the log P values and mass detection: The stated log P values were determined in accordance with EEC-Directive 79/831 Annex V.A8 by UPLC (Ultra Performance Liquid Chromatography) on a reverse phase column (C18). […] The mass detection was effected with the LCT Premier or SQD mass detector from Waters.

Pyricularia oryzae = assay: whole plant or invertebrate; assay type: in vivo; conditions: 168 h, read-out: efficacy
Venturia inaequalis = assay: Venturia test (apples)/preventive; assay type: in vivo; conditions: 100 ppm of active ingredient, preventive, evaluated 10 days after inoculation
Method: as §1, with “Venturia” for “Botrytis”, “(Apples)/Preventive” for “(Beans)/Preventive”, “compound at” for “compound. After”, “stated rate” for “spray coating has dried on, 2 small pieces”, “application.” for “agar covered with growth of Botrytis cinerea are placed on each leaf.”

Alternaria solani = assay: Alternaria test (tomato)/preventive; assay type: in vivo; conditions: 168 h, 500 ppm of active ingredient, preventive, evaluated 7 days after inoculation, read-out: efficacy
Method: Alternaria Test (Tomato)/Preventive Solvent: 49 parts by weight of N,N-Dimethylformamide Emulsifier: 1 part by weight of Alkylarylpolyglycolether To produce a suitable preparation of active compound, 1 part by weight of active compound is mixed with the stated amounts of solvent and emulsifier, and the concentrate is diluted with water to the desired concentration. To test for preventive activity, young plants are sprayed with the preparation of active compound at the stated rate of application. One day after this treatment, the plants are inoculated with an aqueous spore suspension of Alternaria solani. […] Then the plants are placed in an incubation cabinet at approximately 20° C. and a relative atmospheric humidity of 96%.

Pyrenophora teres = assay: Pyrenophora test (barley)/preventive; assay type: in vivo; conditions: 500 ppm of active ingredient, preventive, evaluated 7-9 days after inoculation, read-out: efficacy
Method: as §2, with “Pyrenophora Test (Barley)/Preventive” for “Leptosphaeria Test (Wheat)/Preventive”, “Pyrenophora Test (Barley)/Preventive Solvent: 49” for “Leptosphaeria Test (Wheat)/Preventive Solvent: 49”, “sprayed with the preparation of” for “sprayed with a preparation of”, “suspension of Pyrenophora teres.” for “suspension of Leptosphaeria nodorum.”

Fusarium graminearum = assay: whole plant or invertebrate; assay type: in vivo; conditions: in Hordeum vulgare, 120 h, read-out: efficacy
[2] = system: Fusarium nivale (var. majus); assay: Fusarium nivale (var. majus)-test (wheat)/preventive; assay type: in vivo; conditions: Microdochium nivale, 120 h, 500 ppm of active ingredient, preventive, evaluated 5 days after inoculation, read-out: efficacy
Method: (§3) Fusarium nivale (Var. Majus)-Test (Wheat)/Preventive Solvent: 49 parts by weight of n,n-dimethylacetamid Emulsifier: 1 part by weight of alkylaryl polyglycol ether To produce a suitable preparation of active compound, 1 part by weight of active compound or active compound combination is mixed with the stated amounts of solvent and emulsifier, and the concentrate is diluted with water to the desired concentration. To test for preventive activity, young plants are sprayed with the preparation of active compound or active compound combination at the stated rate of application. After the spray coating has been dried, the plants are slightly injured by using a sandblast and afterwards they are sprayed with a conidia suspension of Fusarium nivale (var. majus).

Puccinia recondita = assay: Puccinia test (wheat)/preventive; assay type: in vivo; conditions: 500 ppm of active ingredient, preventive, evaluated 7-9 days after inoculation, read-out: efficacy
Method: as §2, with “Puccinia Test (Wheat)/Preventive” for “Leptosphaeria Test (Wheat)/Preventive”, “sprayed with the preparation of” for “sprayed with a preparation of”, “suspension of Puccinia recondita.” for “suspension of Leptosphaeria nodorum.”

Sphaerotheca fuliginea = assay: Sphaerotheca test (cucumber)/preventive; assay type: in vivo; conditions: Podosphaera fuliginea, 168 h, 500 ppm of active ingredient, preventive, evaluated 7 days after inoculation, 0% = untreated control, 100% = no disease, read-out: efficacy
Method: as §2, with “Sphaerotheca Test (Cucumber)/Preventive” for “Leptosphaeria Test (Wheat)/Preventive”, “Sphaerotheca Test (Cucumber)/Preventive Solvent: 49” for “Leptosphaeria Test (Wheat)/Preventive Solvent: 49”, “sprayed with the preparation of” for “sprayed with a preparation of”, “suspension of Sphaerotheca fuliginea.” for “suspension of Leptosphaeria nodorum.”

Septoria tritici = assay: Septoria tritici-test (wheat)/preventive; assay type: in vivo; conditions: 500 ppm of active ingredient, preventive, evaluated 21 days after inoculation
Method: as §3, with “Septoria tritici-Test” for “Fusarium nivale (Var. Majus)-Test”, “are” for “are slightly injured by using a sandblast and afterwards they are”, “spore” for “conidia”, “Septoria tritici.” for “Fusarium nivale (var. majus).”

Plasmopara viticola = assay: Plasmopara test (grapevines)/preventive; assay type: in vivo; conditions: 100 ppm of active ingredient, preventive, evaluated 6 days after inoculation
Method: Plasmopara Test (Grapevines)/Preventive Solvent: 24.5 parts by weight of acetone • 24.5 parts by weight of dimethylacetamide Emulsifier: 1 part by weight of alkylaryl polyglycol ether To produce a suitable preparation of active compound, 1 part by weight of active compound is mixed with the stated amounts of solvent and emulsifier, and the concentrate is diluted with water to the desired concentration. To test for preventive activity, young plants are sprayed with the preparation of active compound at the stated rate of application. […] The plants are then misted and placed for 1 day in an incubation cabinet.

Compound: CC(=O)N(C(C)=O)c1cc(-c2c(-c3ccsc3)nn3c2CCCC3)ccn1 [Example 4, N-acetyl-N-{4-[2-(3-thienyl)-4,5,6,7-tetrahydropyrazolo[1,5-a]pyridin-3-yl]pyridin-2-yl}acetamide]
- pest or weed control at 100 ppm (Botrytis cinerea): 95%
- pest or weed control at 100 ppm (Phytophthora infestans): 95%
- pest or weed control at 500 ppm (Leptosphaeria nodorum): 95%
- chromatographic logP [1]: 2.18
- pest or weed control at 500 ppm (Pyricularia oryzae): 95%
- efficacy (Venturia inaequalis): 95%
- pest or weed control at 500 ppm (Alternaria solani): 90%
- pest or weed control at 500 ppm (Pyrenophora teres): 95%

Compound: CCC(=O)N(C(=O)C(C)C)c1cc(-c2c(-c3ccc(F)cc3)nn3c2CCOC3C)ccn1 (stereo not shown) [Example 3, N-{4-[2-(4-fluorophenyl)-7-methyl-4,5-dihydropyrazolo[1,5-c][1,3]oxazin-3-yl]pyridin-2-yl}-2-methyl-N-propionylpropanamide]
- pest or weed control at 500 ppm (Fusarium graminearum): 89%
- pest or weed control at 100 ppm (Botrytis cinerea): 88%
- pest or weed control at 500 ppm [2]: 100%
- pest or weed control at 100 ppm (Phytophthora infestans): 91%
- pest or weed control at 500 ppm (Leptosphaeria nodorum): 90%
- chromatographic logP [1]: 3.83
- pest or weed control at 500 ppm (Pyricularia oryzae): 90%
- efficacy (Venturia inaequalis): 95%
- pest or weed control at 500 ppm (Puccinia recondita): 95%
- pest or weed control at 500 ppm (Sphaerotheca fuliginea): 95%
- efficacy (Septoria tritici): 100%
- pest or weed control at 500 ppm (Alternaria solani): 90%
- pest or weed control at 500 ppm (Pyrenophora teres): 100%

Compound: CC(=O)N(C(C)=O)c1cc(-c2c(-c3cccs3)nn3c2CCCC3)ccn1 [Example 8, N-acetyl-N-{4-[2-(2-thienyl)-4,5,6,7-tetrahydropyrazolo[1,5-a]pyridin-3-yl]pyridin-2-yl}acetamide]
- pest or weed control at 500 ppm (Fusarium graminearum): 88%
- pest or weed control at 500 ppm [2]: 92%
- pest or weed control at 100 ppm (Phytophthora infestans): 83%
- pest or weed control at 500 ppm (Leptosphaeria nodorum): 89%
- chromatographic logP [1]: 2.18
- pest or weed control at 500 ppm (Pyricularia oryzae): 95%
- pest or weed control at 500 ppm (Puccinia recondita): 89%
- pest or weed control at 500 ppm (Sphaerotheca fuliginea): 95%
- pest or weed control at 500 ppm (Alternaria solani): 89%
- pest or weed control at 500 ppm (Pyrenophora teres): 100%

Compound: CCOC(=O)N(C(=O)C1CC1)c1cc(-c2c(-c3ccc(F)cc3)nn3c2CCC3)ccn1 [Example 11, ethyl (cyclopropylcarbonyl){4-[2-(4-fluorophenyl)-5,6-dihydro-4H-pyrrolo[1,2-b]pyrazol-3-yl]pyridin-2-yl}carbamate]
- pest or weed control at 100 ppm (Botrytis cinerea): 74%
- pest or weed control at 100 ppm (Phytophthora infestans): 86%
- pest or weed control at 500 ppm (Leptosphaeria nodorum): 95%
- efficacy (Plasmopara viticola): 90%
- chromatographic logP [1]: 2.78
- pest or weed control at 500 ppm (Pyricularia oryzae): 70%
- pest or weed control at 500 ppm (Puccinia recondita): 100%
- pest or weed control at 500 ppm (Sphaerotheca fuliginea): 95%
- pest or weed control at 500 ppm (Alternaria solani): 95%
- pest or weed control at 500 ppm (Pyrenophora teres): 95%

Compound: CC(=O)N(C(C)=O)c1cc(-c2c(-c3ccc(F)cc3)nn3c2CCOC3C)ccn1 (stereo not shown) [Example 10, N-acetyl-N-{4-[2-(4-fluorophenyl)-7-methyl-4,5-dihydropyrazolo[1,5-c][1,3]oxazin-3-yl]pyridin-2-yl}acetamide]
- pest or weed control at 500 ppm (Fusarium graminearum): 94%
- pest or weed control at 500 ppm [2]: 100%
- pest or weed control at 500 ppm (Leptosphaeria nodorum): 90%
- chromatographic logP [1]: 2.56
- pest or weed control at 500 ppm (Puccinia recondita): 95%
- pest or weed control at 500 ppm (Sphaerotheca fuliginea): 95%
- efficacy (Septoria tritici): 80%
- pest or weed control at 500 ppm (Alternaria solani): 90%
- pest or weed control at 500 ppm (Pyrenophora teres): 95%

Compound: CC(=O)N(C(C)=O)c1cc(-c2c(-c3ccccc3)nn3c2CCCC3)ccn1 [Example 2, N-acetyl-N-[4-(2-phenyl-4,5,6,7-tetrahydropyrazolo[1,5-a]pyridin-3-yl)pyridin-2-yl]acetamide]
- pest or weed control at 500 ppm (Fusarium graminearum): 100%
- pest or weed control at 100 ppm (Botrytis cinerea): 87%
- pest or weed control at 500 ppm [2]: 100%
- pest or weed control at 100 ppm (Phytophthora infestans): 95%
- pest or weed control at 500 ppm (Leptosphaeria nodorum): 95%
- chromatographic logP [1]: 2.22
- pest or weed control at 500 ppm (Pyricularia oryzae): 70%
- efficacy (Venturia inaequalis): 71%
- pest or weed control at 500 ppm (Puccinia recondita): 100%
- pest or weed control at 500 ppm (Sphaerotheca fuliginea): 96%
- efficacy (Septoria tritici): 100%
- pest or weed control at 500 ppm (Alternaria solani): 100%
- pest or weed control at 500 ppm (Pyrenophora teres): 100%

Compound: CCC(=O)N(C(=O)C1CC1)c1cc(-c2c(-c3ccc(F)cc3)nn3c2CCC3)ccn1 [Example 9, N-{4-[2-(4-fluorophenyl)-5,6-dihydro-4H-pyrrolo[1,2-b]pyrazol-3-yl]pyridin-2-yl}-N-propionylcyclopropanecarboxamide]
- pest or weed control at 100 ppm (Botrytis cinerea): 96%
- pest or weed control at 100 ppm (Phytophthora infestans): 79%
- pest or weed control at 500 ppm (Leptosphaeria nodorum): 95%
- efficacy (Plasmopara viticola): 95%
- chromatographic logP [1]: 2.87
- pest or weed control at 500 ppm (Pyricularia oryzae): 90%
- efficacy (Venturia inaequalis): 100%
- pest or weed control at 500 ppm (Puccinia recondita): 100%
- pest or weed control at 500 ppm (Sphaerotheca fuliginea): 100%
- pest or weed control at 500 ppm (Pyrenophora teres): 95%
